In patent publication US20230382925A1, “MODULATORS OF CYSTIC FIBROSIS TRANSMEMBRANE CONDUCTANCE REGULATOR” (VERTEX PHARMACEUTICALS INCORPORATED, priority 2020, published 2023):
Values joined by “and” are separate entries in the source; they are usually repeats but may differ in a detail not shown here. Equal entries are not always repeated. Where two headings read alike, the source gives them in different places.

Assays:
[1] = amide bond, 13-membered ring
CFTR [2] = target: T1, CFTR (Homo sapiens, UniProt P13569); test: Membrane Potential Dye, Enteroid Assay B; format: cell-based
T1 sequence (P13569 with tags, fused parts or gaps DEL508-508): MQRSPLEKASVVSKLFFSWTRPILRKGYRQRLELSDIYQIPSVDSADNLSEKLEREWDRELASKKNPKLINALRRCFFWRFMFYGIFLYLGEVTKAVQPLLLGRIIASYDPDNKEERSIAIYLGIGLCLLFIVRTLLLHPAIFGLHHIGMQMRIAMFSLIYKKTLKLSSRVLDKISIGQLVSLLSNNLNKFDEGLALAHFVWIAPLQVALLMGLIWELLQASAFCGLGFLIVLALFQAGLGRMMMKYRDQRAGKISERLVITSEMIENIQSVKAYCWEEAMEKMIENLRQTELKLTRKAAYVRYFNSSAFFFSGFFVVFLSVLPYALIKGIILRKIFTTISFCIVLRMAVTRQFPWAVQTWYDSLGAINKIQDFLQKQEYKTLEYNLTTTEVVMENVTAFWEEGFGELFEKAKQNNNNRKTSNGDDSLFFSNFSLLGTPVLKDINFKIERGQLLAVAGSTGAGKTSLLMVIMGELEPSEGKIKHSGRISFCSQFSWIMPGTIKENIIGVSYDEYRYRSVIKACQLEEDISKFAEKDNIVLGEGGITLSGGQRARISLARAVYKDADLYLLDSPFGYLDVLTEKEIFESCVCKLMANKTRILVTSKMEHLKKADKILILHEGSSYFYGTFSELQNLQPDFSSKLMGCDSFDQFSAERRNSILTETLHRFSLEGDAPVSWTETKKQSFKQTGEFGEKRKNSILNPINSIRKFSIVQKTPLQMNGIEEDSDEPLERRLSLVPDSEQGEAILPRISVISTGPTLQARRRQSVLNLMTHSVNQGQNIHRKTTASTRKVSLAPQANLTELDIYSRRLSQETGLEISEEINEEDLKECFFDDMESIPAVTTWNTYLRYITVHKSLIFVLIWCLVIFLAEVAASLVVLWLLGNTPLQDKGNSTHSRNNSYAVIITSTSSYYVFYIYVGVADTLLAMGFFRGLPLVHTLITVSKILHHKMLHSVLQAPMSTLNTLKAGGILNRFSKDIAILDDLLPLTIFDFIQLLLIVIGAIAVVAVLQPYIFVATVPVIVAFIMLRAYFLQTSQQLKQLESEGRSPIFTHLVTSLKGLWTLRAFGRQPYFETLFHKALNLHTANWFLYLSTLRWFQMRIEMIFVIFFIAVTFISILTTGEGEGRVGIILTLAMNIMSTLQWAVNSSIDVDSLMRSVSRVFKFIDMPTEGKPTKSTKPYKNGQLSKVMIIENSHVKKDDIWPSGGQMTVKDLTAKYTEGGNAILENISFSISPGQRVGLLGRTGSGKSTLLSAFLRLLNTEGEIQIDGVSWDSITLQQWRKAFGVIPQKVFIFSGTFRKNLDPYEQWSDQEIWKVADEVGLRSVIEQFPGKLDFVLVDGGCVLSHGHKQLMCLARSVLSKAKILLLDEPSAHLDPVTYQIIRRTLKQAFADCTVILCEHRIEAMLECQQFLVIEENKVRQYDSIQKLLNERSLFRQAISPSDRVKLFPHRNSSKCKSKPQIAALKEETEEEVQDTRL
Outline: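 Human intestinal enteroid cells exposed to compound 18-24 h at 37 °C, then loaded with methyl oxonol membrane-potential dye plus CaCC blockers. Chloride transport triggered in chloride-free buffer with 10 μM forskolin, 100 μM IBMX, 300 nM Compound III; fluorescence read 15 min, expressed as % of triple-corrector/potentiator combination control.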

CFTR [3] = target: T1, CFTR; test: Membrane Potential Dye, Enteroid Assay A; format: cell-based
Outline: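 Primary human intestinal enteroid cells exposed to compound for 18–24 hours at 37 °C, then loaded 25 min with methyl oxonol membrane potential dye plus CaCC inhibitors. Chloride transport triggered in chloride-free buffer with 10 μM forskolin, 100 μM IBMX and 300 nM Compound III, fluorescence read 15 min; % Activity relative to a triple-combination corrector/potentiator control.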

[4] = Table 10, read-out: Ent. B EC50

Cc1cccc(C)c1-c1cc2nc(n1)NS(=O)(=O)c1cccc(c1)C(=O)N(C1CC(C(=O)OC(C)C)(C(=O)OC(C)C)C1)[C@H](CC(C)(C)C)CO2
ring closure, isolated yield ([1]; from Cc1cccc(C)c1-c1cc(OC[C@@H](CC(C)(C)C)NC2CC(C(=O)OC(C)C)(C(=O)OC(C)C)C2)nc(NS(=O)(=O)c2cccc(C(=O)O)c2)n1, COMU/DIEA, DMF, 18.6 mM, 25.0 °C, 21.0 h): 20%

Cc1cccc(C)c1-c1cc2nc(n1)NS(=O)(=O)c1cccc(c1)C(=O)N(C1CC(NC(=O)OC(C)(C)C)C1)[C@H](CC1(C(F)(F)F)CC1)CO2 (some centres unmarked)
ring closure, isolated yield ([1]; from Cc1cccc(C)c1-c1cc(OC[C@@H](CC2(C(F)(F)F)CC2)NC2CC(NC(=O)OC(C)(C)C)C2)nc(NS(=O)(=O)c2cccc(C(=O)O)c2)n1, HATU/DIPEA, DMF, 28.6 mM, 16.0 h): 61%

Cc1cccc(C)c1-c1cc2nc(n1)NS(=O)(=O)c1cccc(c1)C(=O)N(C1CC(OCc3ccccc3)C1)[C@H](CC(C)(C)C)CO2 (some centres unmarked)
ring closure, isolated yield ([1]; from Cc1cccc(C)c1-c1cc(OC[C@@H](CC(C)(C)C)NC2CC(OCc3ccccc3)C2)nc(NS(=O)(=O)c2cccc(C(=O)O)c2)n1, COMU/DIEA, DMF, 65.1 mM, 25.0 °C, 16.0 h): 82%

Cc1cccc(C)c1-c1cc2nc(n1)NS(=O)(=O)c1cccc(c1)C(=O)N(C1CC(OCc3ccccc3)C1)[C@H](CC(C)C)CO2 (some centres unmarked)
ring closure, isolated yield ([1]; from Cc1cccc(C)c1-c1cc(OC[C@@H](CC(C)C)NC2CC(OCc3ccccc3)C2)nc(NS(=O)(=O)c2cccc(C(=O)O)c2)n1, HATU/DIEA, DMF, 77.3 mM, 15.0 h): 85%

Cc1cccc(C)c1-c1cc2nc(n1)NS(=O)(=O)c1cccc(c1)C(=O)N(C1CC3(C1)CC1(C3)OCCO1)[C@H](CC(C)(C)C)CO2
ring closure, isolated yield ([1]; from Cc1cccc(C)c1-c1cc(OC[C@@H](CC(C)(C)C)NC2CC3(C2)CC2(C3)OCCO2)nc(NS(=O)(=O)c2cccc(C(=O)O)c2)n1, COMU/DIEA, DMF, 71.6 mM, 16.0 h): 76%

Cc1cccc(C)c1-c1cc2nc(n1)NS(=O)(=O)c1cccc(c1)C(=O)N(C1CC3(C1)CN(C(=O)OC(C)(C)C)C3)[C@H](CC1(C(F)(F)F)CC1)CO2
ring closure, isolated yield ([1]; from Cc1cccc(C)c1-c1cc(OC[C@@H](CC2(C(F)(F)F)CC2)NC2CC3(C2)CN(C(=O)OC(C)(C)C)C3)nc(NS(=O)(=O)c2cccc(C(=O)O)c2)n1, HATU/TEA, DMF, 35.1 mM, 22.0 h): 49%

Cc1cccc(C)c1-c1cc2nc(n1)NS(=O)(=O)c1cccc(c1)C(=O)N(C1CC3(CC(NC(=O)OC(C)(C)C)C3)C1)[C@H](CC1(C(F)(F)F)CC1)CO2 (some centres unmarked)
ring closure, isolated yield ([1]; from Cc1cccc(C)c1-c1cc(OC[C@@H](CC2(C(F)(F)F)CC2)NC2CC3(CC(NC(=O)OC(C)(C)C)C3)C2)nc(NS(=O)(=O)c2cccc(C(=O)O)c2)n1, HATU/DIEA, DMF, 99.2 mM, 18.0 h): 74%

Cc1cccc(C)c1-c1cc2nc(n1)NS(=O)(=O)c1cccc(c1)C(=O)N(C1CC3(CCN(C(=O)OC(C)(C)C)C3)C1)[C@H](CC(C)C)CO2 (some centres unmarked)
ring closure, isolated yield ([1]; from Cc1cccc(C)c1-c1cc(OC[C@@H](CC(C)C)NC2CC3(CCN(C(=O)OC(C)(C)C)C3)C2)nc(NS(=O)(=O)c2cccc(C(=O)O)c2)n1, HATU/DIEA, DMF, 25.0 °C, 3.0 h, 2 steps): 67%

Cc1cccc(C)c1-c1cc2nc(n1)NS(=O)(=O)c1cccc(c1)C(=O)N(C1CC3(CCN(C(=O)OC(C)(C)C)CC3)C1)C[C@@H](C)O2
ring closure, isolated yield ([1]; from Cc1cccc(C)c1-c1cc(O[C@H](C)CNC2CC3(CCN(C(=O)OC(C)(C)C)CC3)C2)nc(NS(=O)(=O)c2cccc(C(=O)O)c2)n1, HATU/DIEA, DMF, 8.8 mM, 6.0 h, 2 steps): 28%

Cc1cccc(C)c1-c1cc2nc(n1)NS(=O)(=O)c1cccc(c1)C(=O)N(C1CC3(CCN(C(=O)OC(C)(C)C)CC3)C1)[C@@H](CC(C)C)CO2
ring closure, isolated yield ([1]; from Cc1cccc(C)c1-c1cc(OC[C@H](CC(C)C)NC2CC3(CCN(C(=O)OC(C)(C)C)CC3)C2)nc(NS(=O)(=O)c2cccc(C(=O)O)c2)n1, HATU/DIEA, DMF/THF, 16.0 h, 2 steps): 18%

Cc1cccc(C)c1-c1cc2nc(n1)NS(=O)(=O)c1cccc(c1)C(=O)N(C1CC3(COC(=O)N3)C1)[C@H](CC(C)(C)C)CO2 (some centres unmarked)
ring closure, isolated yield ([1]; from Cc1cccc(C)c1-c1cc(OC[C@@H](CC(C)(C)C)NC2CC3(COC(=O)N3)C2)nc(NS(=O)(=O)c2cccc(C(=O)O)c2)n1, COMU/DIEA, DMF, 13.0 mM, 25.0 °C, 3.0 h, 2 steps): 8% and 3%

Cc1cccc(C)c1-c1cc2nc(n1)NS(=O)(=O)c1cccc(c1)C(=O)N(C1CCN(C(=O)OC(C)(C)C)C1)[C@H](CC(C)C)CO2 (some centres unmarked)
ring closure, isolated yield ([1]; from Cc1cccc(C)c1-c1cc(OC[C@@H](CC(C)C)NC2CCN(C(=O)OC(C)(C)C)C2)nc(NS(=O)(=O)c2cccc(C(=O)O)c2)n1, COMU/DIPEA, DMF, 10.0 mM, 16.0 h, 2 steps): 28%

Cc1cccc(C)c1-c1cc2nc(n1)NS(=O)(=O)c1cccc(c1)C(=O)N(C1[C@@H]3C[C@H]1CN(C(=O)OC(C)(C)C)C3)[C@H](CC(C)(C)C)CO2 (some centres unmarked)
ring closure, isolated yield ([1]; from Cc1cccc(C)c1-c1cc(OC[C@@H](CC(C)(C)C)NC2C3CC2CN(C(=O)OC(C)(C)C)C3)nc(NS(=O)(=O)c2cccc(C(=O)O)c2)n1, COMU/DIEA, DMF, 8.4 mM, 25.0 °C, 24.0 h): 17%

Cc1cccc(C)c1-c1cc2nc(n1)NS(=O)(=O)c1cccc(c1)C(=O)N(C1CC3(CC3)C1)[C@H](CC(C)(C)O)CO2 [Compound 51, (11R)-6-(2,6-Dimethylphenyl)-11-(2-hydroxy-2-methyl-propyl)-2,2-dioxo-12-spiro[2.3]hexan-5-yl-9-oxa-2λ^6-thia-3,5,12,19-tetrazatricyclo[12.3.1.14,8]nonadeca-1(18),4(19),5,7,14,16-hexaen-13-one]
Ent. B Max Activity (%) (CFTR [2]; Table 10): +++ (+++ is >60%) | EC50 (CFTR [2]; [4]): 1 to 3 µM | ring closure, isolated yield ([1]; from Cc1cccc(C)c1-c1cc(OC[C@@H](CC(C)(C)O)NC2CC3(CC3)C2)nc(NS(=O)(=O)c2cccc(C(=O)O)c2)n1, T3P/Et3N, DMF/EtOAc, 26.4 mM, 4.0 h): 17%

Cc1cccc(C)c1-c1cc2nc(n1)NS(=O)(=O)c1cccc(c1)C(=O)N(C1CC3(CCN(C(=O)OC(C)(C)C)CC3)C1)[C@H](CC1(C(F)(F)F)CC1)CO2 [Compound 127, tert-butyl 2-[(11R)-6-(2,6-dimethylphenyl)-2,2,13-trioxo-11-[[1-(trifluoromethyl)cyclopropyl]methyl]-9-oxa-2λ^6-thia-3,5,12,19-tetrazatricyclo[12.3.1.14,8]nonadeca-1(18),4(19),5,7,14,16-hexaen-12-yl]-7-azaspiro[3.5]nonane-7-carboxylate]
Ent. B Max Activity (%) (CFTR [2]): +++ (+++ is >60%) | EC50 (CFTR [2]; read-out: Ent. B EC50): < 1 µM | ring closure, isolated yield ([1]; from Cc1cccc(C)c1-c1cc(OC[C@@H](CC2(C(F)(F)F)CC2)NC2CC3(CCN(C(=O)OC(C)(C)C)CC3)C2)nc(NS(=O)(=O)c2cccc(C(=O)O)c2)n1, HATU/DIEA, DMF, 65.3 mM, 16.0 h): 59%

Cc1cccc(C)c1-c1cc2nc(n1)NS(=O)(=O)c1cccc(n1)C(=O)N(C1CC3(CC3)C1)[C@H](CC1(C(F)(F)F)CC1)CO2 [Compound 163, (11R)-6-(2,6-Dimethylphenyl)-2,2-dioxo-12-spiro[2.3]hexan-5-yl-11-[[1-(trifluoromethyl)cyclopropyl]methyl]-9-oxa-2λ^6-thia-3,5,12,18,19-pentazatricyclo[12.3.1.14,8]nonadeca-1(18),4(19),5,7,14,16-hexaen-13-one]
Ent. A Max Activity (%) (CFTR [3]): +++ (+++ is >60%) | EC50 (CFTR [3]; read-out: Ent. A EC50): < 1 µM | ring closure, isolated yield ([1]; from Cc1cccc(C)c1-c1cc(OC[C@@H](CC2(C(F)(F)F)CC2)NC2CC3(CC3)C2)nc(NS(=O)(=O)c2cccc(C(=O)O)n2)n1, HATU/DIEA, NMP, 99.8 mM, 25.0 °C, 16.0 h): 58%

Cc1cccc(C)c1-c1cc2nc(n1)NS(=O)(=O)c1cccc(c1)C(=O)N(C1CC3(CCN(C(=O)OC(C)(C)C)CC3)C1)[C@H](CC(C)(C)C(F)(F)F)CO2 [Compound 187, tert-Butyl 2-[(11R)-6-(2,6-dimethylphenyl)-2,2,13-trioxo-11-(3,3,3-trifluoro-2,2-dimethylpropyl)-9-oxa-2λ^6-thia-3,5,12,19-tetraazatricyclo[12.3.1.14,8]nonadeca-1(17),4(19),5,7,14(18),15-hexaen-12-yl]-7-azaspiro[3.5]nonane-7-carboxylate]
Ent. B Max Activity (%) (CFTR [2]; Table 9): +++ (+++ is >60%) | EC50 (CFTR [2]; Table 9, read-out: Ent. B EC50): < 1 µM | ring closure, isolated yield ([1]; from Cc1cccc(C)c1-c1cc(OC[C@@H](CC(C)(C)C(F)(F)F)NC2CC3(CCN(C(=O)OC(C)(C)C)CC3)C2)nc(NS(=O)(=O)c2cccc(C(=O)O)c2)n1, HATU/DIEA, DMF, 37.7 mM, 17.0 h): 15%

Cc1cccc(C)c1-c1cc2nc(n1)NS(=O)(=O)c1cccc(c1)C(=O)N(C1CC3(CC(NC(=O)OC(C)(C)C)C3)C1)[C@H](CC(C)(C)C)CO2 (some centres unmarked) [Compound 199]
Ent. B Max Activity (%) (CFTR [2]; Table 10): +++ (+++ is >60%) | EC50 (CFTR [2]; [4]): < 1 µM | ring closure, isolated yield ([1]; from Cc1cccc(C)c1-c1cc(OC[C@@H](CC(C)(C)C)NC2CC3(CC(NC(=O)OC(C)(C)C)C3)C2)nc(NS(=O)(=O)c2cccc(C(=O)O)c2)n1, HATU/DIEA, DMF, 107.7 mM, 24.0 h): 63% | ring closure, isolated yield ([1]; from Cc1cccc(C)c1-c1cc(OC[C@@H](CC(C)(C)C)NC2CC3(CC(NC(=O)OC(C)(C)C)C3)C2)nc(NS(=O)(=O)c2cccc(C(=O)O)c2)n1, HATU/DIEA, DMF, 120.7 mM, 36.0 h): 80%
